Measurements taken from patent publication US20230277698A1, “SILICON-CONTAINING LIGAND COMPOUNDS” (Technische Universität München, priority 2020, published 2023).

Experiments:
LNCaP cells = experiment: Internalization studies on LNCaP cells; assay type: cell-based; conditions: 177Lu-labelled, c=1.0 nM, 1 hour, 37 °C; % of reference ligand ([125I]I-BA)KuE (c=0.2 nM); corrected for non-specific binding (PMPA); mean±SD, n=3-6
Procedure: PSMA-positive LNCAP cells (300265; Cell Lines Service, Eppelheim, Germany) were cultivated in Dulbecco modified Eagle medium/Nutrition Mixture F-12 with Glutamax (1:1) (DMEM-F12, Biochrom, Berlin, Germany) supplemented with fetal bovine serum (10%, FBS Zellkultur, Berlin, Germany) and kept at 37° C. in a humidified CO2 atmosphere (5%). A mixture of trypsin and EDTA (0.05%, 0.02%) in PBS (Biochrom) was used in order to harvest cells. Cells were counted with a Neubauer hemocytometer (Paul Marienfeld, Lauda-Königshofen, Germany).
For internalization studies, LNCaP cells were harvested 24±2 hours before the experiment and seeded in poly-L-lysine coated 24-well plates (1.25×10^5 cells in 1 mL/well, Greiner Bio-One, Kremsmünster, Austria). After removal of the culture medium, the cells were washed once with 500 μL DMEM-F12 (5% BSA) and left to equilibrate for at least 15 min at 37° C. in 200 μL DMEM-F12 (5% BSA). Each well was treated with either 25 μL of either DMEM-F12 (5% BSA, control) or 25 μL of a 100 μM PMPA (2-(Phosphonomethyl)-pentandioic acid, Tocris Bioscience, Bristol, UK) solution in PBS, for blockade. Next, 25 μL of the radioactive-labelled PSMA inhibitor (10.0 nM in PBS) was added and the cells were incubated at 37° C. for 60 min. The experiment was terminated by placing the 24-well plate on ice for 3 min and consecutive removal of the medium. Each well was carefully washed with 250 μL of ice-cold HBSS. Both fractions from the first steps, representing the amount of free radioligand, were combined. Removal of surface bound activity was accomplished by incubation of the cells with 250 μL of ice-cold PMPA (10 μM in PBS) solution for 5 min and rinsed again with another 250 μL of ice-cold PBS. The internalized activity was determined by incubation of the cells in 250 μL 1 M aqueous NaOH for at least 10 min. The obtained fractions were combined with those of the subsequent wash step with 250 μL 1 M aqueous NaOH. Each experiment (control and blockade) was performed in triplicate. Free, surface bound and internalized activity was quantified in a γ-counter. All internalization studies were accompanied by external reference studies, using ([^125I]l-BA)KuE (c=0.2 nM), which were performed analogously. Data were corrected for non-specific binding and normalized to the specific-internalization observed for the radioiodinated reference compound.
Data is corrected for non-specific binding (10 μmol PMPA) and expressed as mean±SD (n=3-6): […]

[1] = target: human serum albumin (HSA) (Homo sapiens, UniProt P02768); experiment: HSA binding by radio inversed affinity chromatography (RIAC); assay type: in vitro ADME; conditions: 177Lu-labelled; Superdex 75 Increase 10/300 GL, 700 μM HSA in PBS, 0.8 mL/min
Procedure: A gel filtration column Superdex 75 Increase 10/300 GL (GE Healthcare, Uppsala, Sweden) was beforehand calibrated following the producer's recommendations with a commercially available gel filtration calibration kit (GE Healthcare, Buckinghamshire, UK) comprising conalbumin (MW: 75 kDa), ovalbumin (44 kDa), carbonic anhydrase (29 kDa), ribonuclease A (13.7 kDa) and aprotinin (6.5 kDa) as reference proteins of known molecular weight. RIAC experiments were conducted using a constant flow rate of 0.8 mL/min at rt. A solution of HSA in PBS at physiological concentration (700 μM) was used as the mobile phase. PSMA ligands were labelled as described with molar activities of 10-20 GBq/μmol. Probes of 1.0 MBq of the radioligand were injected directly from the labelling solution. HSA binding was expressed as an apparent molecular weight MW calculated from the retention time of the radioligand using the determined calibration curve.
The following table summarizes the underlying data. MW: molecular weight. tR: experimentally determined retention time. V: elution volume. Kav: partition coefficient.
RIAC, in an inversed way, comprises ligand samples (radiolabeled PSMA ligands) and a protein (HSA) containing mobile phase. Ligand-specific retention is caused by interaction of the ligand probe and HSA in the mobile phase. Unbound species, due to a molecular weight beneath the molecular cut off of the gel filtration column, are maximally retained while bound species are eluted in accordance to the higher molecular weight of the ligand-HSA-complex (MWHSA: 66.47 kDa). Experiments show a single radiopeak indicating a dynamic process of formation and dissociation of the ligand-HSA-complex throughout the passage through the column bed. Accordingly, the absolute retention time is the result of the ligand's mean time of abidance at HSA which is directly defined by the ligand's binding kinetics and affinity toward HSA. For evaluation, experimentally determined retention times tR are first converted into elution volumes Ve by multiplying with the flow rate and thereafter converted into partition coefficients Kav following the equation
where V0 is the column void volume (8.027 mL) and Vc is the geometric column volume (24 mL). Using the equation given by the trend line plot of the column calibration
the apparent molecular weight MW is calculated as
FIG. 7 and the table below show the results HSA-binding of lutetium-complexed PSMA-ligands and reference compounds determined by RIAC on a Superdex 75 Increase 10/300 GL column 700 μM HSA in PBS as solvent using a constant flow rate of 0.8 mL/min (plotted data, extracted from FIG. 8).
FIG. 8 illustrates the determination of HSA binding via radio inverse affinity chromatography (RIAC). Correlation of apparent molecular weight (MW) in Dalton (Da) and retention time of ^177Lu-labeled samples, determined on a Superdex 75 Increase 10/300 GL with 700 μM HSA in PBS as solvent using a constant flow rate of 0.8 mL/min.

Chain of human serum albumin (HSA) (P02768 25-609): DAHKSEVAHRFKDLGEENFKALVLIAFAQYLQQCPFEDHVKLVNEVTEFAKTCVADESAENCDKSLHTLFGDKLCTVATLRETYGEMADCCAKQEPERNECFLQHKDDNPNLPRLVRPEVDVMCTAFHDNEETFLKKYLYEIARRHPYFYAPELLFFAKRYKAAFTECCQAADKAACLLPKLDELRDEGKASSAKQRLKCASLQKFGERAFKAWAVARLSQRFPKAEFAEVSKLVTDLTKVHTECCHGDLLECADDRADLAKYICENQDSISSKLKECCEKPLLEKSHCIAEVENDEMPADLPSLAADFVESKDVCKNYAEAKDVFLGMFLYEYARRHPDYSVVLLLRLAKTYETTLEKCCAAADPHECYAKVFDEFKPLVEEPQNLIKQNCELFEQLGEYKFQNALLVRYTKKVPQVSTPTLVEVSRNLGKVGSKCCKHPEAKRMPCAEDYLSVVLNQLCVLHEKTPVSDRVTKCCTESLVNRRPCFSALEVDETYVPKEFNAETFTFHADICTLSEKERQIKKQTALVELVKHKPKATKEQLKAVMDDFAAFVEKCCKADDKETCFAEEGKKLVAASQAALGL

SMILES | Internalization (% IBA) (LNCaP cells) | HSA-binding RIAC (apparent molecular weight) [1]
CC(C)(C)[Si](O)(c1ccc(C(=O)NC[C@@H](NC(=O)CC[C@@H](C(=O)O)N2CCN(CC(=O)O)CCN(CC(=O)O)CCN(CC(=O)O)CC2)C(=O)NCC(=O)N[C@@H](CCCCNC(=O)CCC(=O)NCCC[C@@H](NC(=O)CC[C@H](NC(=O)N[C@@H](CCC(=O)O)C(=O)O)C(=O)O)C(=O)O)C(=O)O)cc1)C(C)(C)C [E102-SiOH] | 203 ± 15 % IBA | 9.3 kDa
CC(C)(C)[Si](O)(c1ccc(C(=O)N[C@H](CCC(=O)NC[C@@H](NC(=O)CC[C@@H](C(=O)O)N2CCN(CC(=O)O)CCN(CC(=O)O)CCN(CC(=O)O)CC2)C(=O)NCCCCCC(=O)NCCC[C@@H](NC(=O)CC[C@H](NC(=O)N[C@@H](CCC(=O)O)C(=O)O)C(=O)O)C(=O)O)C(=O)O)cc1)C(C)(C)C [P105-SiOH] | 185 ± 4 % IBA | 10.4 kDa
CC(C)(C)[Si](O)(c1ccc(C(=O)NC[C@@H](NC(=O)CC[C@@H](C(=O)O)N2CCN(CC(=O)O)CCN(CC(=O)O)CCN(CC(=O)O)CC2)C(=O)N[C@H](CCCCNC(=O)CCC(=O)NCCC[C@@H](NC(=O)CC[C@H](NC(=O)N[C@@H](CCC(=O)O)C(=O)O)C(=O)O)C(=O)O)C(=O)O)cc1)C(C)(C)C [7.3-SiOH] | 225 ± 23 % IBA | 10.1 kDa
CC(C)(C)[Si](O)(c1ccc(C(=O)NC[C@@H](NC(=O)CC[C@@H](C(=O)O)N2CCN(CC(=O)O)CCN(CC(=O)O)CCN(CC(=O)O)CC2)C(=O)N[C@H](CO)C(=O)NCCC(=O)NCCC(=O)NCCC[C@@H](NC(=O)CC[C@H](NC(=O)N[C@@H](CCC(=O)O)C(=O)O)C(=O)O)C(=O)O)cc1)C(C)(C)C [C007-SiOH] | 185 ± 15 % IBA | 8.0 kDa
CC(C)(C)[Si](O)(c1ccc(C[N+](C)(C)CC(=O)NCCC[C@@H](NC(=O)CC[C@@H](C(=O)O)N2CCN(CC(=O)O)CCN(CC(=O)O)CCN(CC(=O)O)CC2)C(=O)NCCCCCC(=O)NCCC[C@@H](NC(=O)CC[C@H](NC(=O)N[C@@H](CCC(=O)O)C(=O)O)C(=O)O)C(=O)O)cc1)C(C)(C)C [P110-SiOH] | 46 ± 2 % IBA | 5.2 kDa
O=C(O)CC[C@H](NC(=O)N[C@@H](CCCCNC(=O)[C@H](Cc1ccc2ccccc2c1)NC(=O)[C@H]1CC[C@H](CNC(=O)CN2CCN(CC(=O)O)CCN(CC(=O)O)CCN(CC(=O)O)CC2)CC1)C(=O)O)C(=O)O [PSMA-617, reference compound] | 160 ± 2 % IBA | 13.7 kDa
CC(C)(C)[Si](F)(c1ccc(C(=O)NC[C@@H](NC(=O)CC[C@@H](C(=O)O)N2CCN(CC(=O)O)CCN(CC(=O)O)CCN(CC(=O)O)CC2)C(=O)N[C@H](CCCCNC(=O)CCC(=O)NCCC[C@@H](NC(=O)CC[C@H](NC(=O)N[C@@H](CCC(=O)O)C(=O)O)C(=O)O)C(=O)O)C(=O)O)cc1)C(C)(C)C [rhPSMA-7.3, reference compound] | 162 ± 14 % IBA | 30.2 kDa
CC(C)(C)[Si](F)(c1ccc(C(=O)NC[C@@H](NC(=O)CN2CCN(CC(=O)O)CCN(CC(=O)O)CCN(CC(=O)O)CC2)C(=O)N[C@H](CCCCNC(=O)CCC(=O)NCCC[C@@H](NC(=O)CC[C@H](NC(=O)N[C@@H](CCC(=O)O)C(=O)O)C(=O)O)C(=O)O)C(=O)O)cc1)C(C)(C)C [rhPSMA-10, reference compound] | 231 ± 57 % IBA | 25.4 kDa
CC(C)(C)[Si](O)(c1ccc(C(=O)NC[C@@H](NC(=O)CCCCCNC(=O)CCCNC(=O)CC[C@@H](NC(=O)CCC(NC(=O)N[C@@H](CCC(=O)O)C(=O)O)C(=O)O)C(=O)O)C(=O)NCC(=O)N[C@@H](CCCCNC(=O)CC[C@@H](C(=O)O)N2CCN(CC(=O)O)CCN(CC(=O)O)CCN(CC(=O)O)CC2)C(=O)O)cc1)C(C)(C)C (stereo partly drawn) [E104-SiOH] | 103 ± 2 % IBA | 7.8 kDa
